US9487530B2, “Transient protection of normal cells during chemotherapy” (G1 Therapeutics, Inc., priority 2013, dated 2016)

Columns and labels:
[1] = Metabolic stability in liver microsomes; format: in vitro ADME; conditions: each of the species tested (human, monkey, dog, rat, mouse); 1 uM
Description: Human, mouse, and dog liver microsomes were purchased from Xenotech, and Sprague-Dawley rat liver microsomes were prepared by Absorption Systems. The reaction mixture comprising 0.5 mg/mL of liver microsomes, 100 mM of potassium phosphate, pH 7.4, 5 mM of magnesium chloride, and 1 uM of test compound was prepared. The test compound was added into the reaction mixture at a final concentration of 1 uM. An aliquot of the reaction mixture (without cofactor) was incubated in shaking water bath at 37 deg. C. for 3 minutes. The control compound, testosterone, was run simultaneously with the test compound in a separate reaction. The reaction was initiated by the addition of cofactor (NADPH), and the mixture was then incubated in a shaking water bath at 37 deg. C. Aliquots (100 μL) were withdrawn at 0, 10, 20, 30, and 60 minutes for the test compound and 0, 10, 30, and 60 minutes for testosterone. […] Test compound samples were analyzed using the Orbitrap high resolution mass spectrometer to quantify the disappearance of parent test compound and detect the appearance of metabolites. […] Half-lives were calculated using GraphPad software, fitting to a single-phase exponential decay equation.
When calculated half-life was longer than the duration of the experiment, the half-life was expressed as >the longest incubation time. The calculated half-life is also listed in parentheses. […]

[2] = test system: 456 (395 non-mutant) kinases; assay: DiscoveRx KINOMEscan profiling; format: binding; conditions: 1000 nM
Description: The compound was screened using a single concentration of 1000 nM (>1000 times the 1050 on Cdk4). Results from this screen confirmed the high potency against Cdk4 and high selectivity versus Cdk2.

blood cell counts [3] = assay: 5FU-induced myelosuppression, single dose; format: in vivo, mouse; conditions: 150 mg/kg oral, 30 minutes before 5FU 150 mg/kg i.p.
Description: Complete blood cell counts were measured every two days starting on day six.

blood cell counts [4] = assay: 5FU-induced myelosuppression, repeated cycles; format: in vivo, mouse; conditions: 150 mg/kg oral + 5FU 150 mg/kg every 21 days, 3 cycles; Day 10 of third cycle
Excerpt: This was repeated every 21 days for 3 cycles. Blood samples were taken for hematology analysis on Day 10 of Cycles 1-3.

HSPCs = assay: Bone marrow HSPC proliferation by EdU incorporation and flow cytometry; format: in vivo, mouse
Description: Mice were then sacrificed at the indicated times (0, 12, 24, 36, or 48 hours following compound administration), and bone marrow was harvested (n=3 mice per time point), as previously described (Johnson et al. J. Clin. Invest. (2010) 120(7), 2528-2536). Four hours before the bone marrow was harvested, mice were treated with 100 μg of EdU by intraperitoneal injection (Invitrogen). Bone marrow mononuclear cells were harvested and immunophenotyped using previously described methods and percent EdU positive cells were then determined (Johnson et al. J. Clin. Invest. (2010) 120(7), 2528-2536). In brief, HSPCs were identified by expression of lineage markers (Lin−), ScaI (S+), and c-Kit (K+).
Four hours before animals were sacrificed and the bone marrow was harvested, mice were treated with 100 μg of EdU by intraperitoneal injection. Three mice per group were sacrificed at 12 hours and the remaining three animals per group were sacrificed at 24 hours. Results are shown in FIG. 6A as the ratio of EdU positive cells for treated animals at 12 or 24 hour time points compared to control.
Further experiments were completed with Compound T examining dose response and longer periods of compound treatment. […] […].
Both compounds were administered at 150 mg/kg by oral gavage. One hour prior to harvesting bone marrow, EdU was IP injected to label cycling cells. Bone marrow was harvested at 12, 24, 36, and 48 hours after compound treatment and the percentage of EdU positive HSPC cells was determined at each time point.

[5] = test system: Rb-positive cell line (WM2664 or tHS68); assay: EdU proliferation, RB-intact Cdk4/6-dependent cell line; format: cell-based; conditions: 24 hours treatment
Description: (§1) The effect of Cdk4/6 inhibition on proliferation was measured by EdU incorporation. An RB-intact, Cdk4/6-dependent cell line (WM2664 or tHS68) and a panel of RB-negative SCLC cell lines (H69, H82, H209, H345, NCI417, or SHP-77) were analyzed for growth inhibition by the various CDK4/6 inhibitors.

[6] = test system: Rb phosphorylation at Ser780 and Ser807/811; assay: Rb phosphorylation western blot; format: cell-based; conditions: 300 nM; Rb-dependent cell lines (tHS68, WM2664); by 16 hours post exposure
Description: The Cdk4/6-cyclin D complex is essential for progression from G1 to the S-phase of the DNA cell cycle. This complex phosphorylates the retinoblastoma tumor suppressor protein (Rb). […] Samples were lysed and protein was assayed by western blot analysis. Rb phosphorylation was measured at two sites targeted by the Cdk4/6-cyclin D complex, Ser780 and Ser807/811 using species specific antibodies.

[7] = test system: tHS68 cells (CDK4/6-dependent cell line); assay: Cell cycle arrest (propidium iodide), tHS68; format: cell-based; conditions: 300 nM for 24 hours
Excerpt: To test the ability of Cdk4/6 inhibitors to induce a clean G1-arrest, a cell based screening method was used consisting of two Cdk4/6-dependent cell lines (tHS68 and WM2664; Rb-positive) and one Cdk4/6-independent (A2058; Rb-negative) cell line. […] At the conclusion of the experiment, cells were harvested, fixed, and stained with propidium iodide (a DNA intercalator), which fluoresces strongly red (emission maximum 637 nm) when excited by 488 nm light. Samples were run on Dako Cyan flow cytometer and >10,000 events were collected for each sample. Data were analyzed using FlowJo 2.2 software developed by TreeStar, Inc.

[8] = test system: RB-negative SCLC cell lines (H69, H82, H209, H345, NCI417, SHP-77); assay: EdU proliferation, RB-negative SCLC cell lines; format: cell-based, human; conditions: 24 hours treatment
Description: as §1

[9] = Mouse pharmacokinetics, oral gavage and intravenous; format: in vivo

Q: Which “half-life in liver microsomes” value [1] does the source give for `CN1CCN(c2ccc(Nc3ncc4cc5n(c4n3)C3(CCCCC3)CNC5=O)nc2)CC1` [T, 2′-((5-(4-methylpiperazin-1-yl)pyridin-2-yl)amino)-7′,8′-dihydro-6′H-spiro[cyclohexane-1,9′-pyrazino[1′,2′:1,5]pyrrolo[2,3-d]pyrimidin]-6′-one] here?
A: shorter half-life than PD0332991

Q: And the “number of 395 non-mutant kinases inhibited” value ([2]; inhibitory threshold 65%)?
A: 92 (23.3%)

Q: And the “number of 395 non-mutant kinases inhibited” value ([2]; inhibitory threshold 90%)?
A: 31 (7.8%)

Q: What about the “number of 395 non-mutant kinases inhibited” value ([2]; inhibitory threshold 99%) of the same compound?
A: 6 (1.5%)

Q: What about the “recovery of blood cell lineages after 5FU” value (blood cell counts [3]) of the same compound?
A: more rapid recovery

Q: What about the “myelosuppression with repeated 5FU” value (blood cell counts [4]) of the same compound?
A: reduced the myelosuppression

Q: And the “EdU incorporation into HSPCs compared to control” value (HSPCs; 150 mg/kg oral gavage, 12 and 24 hours, FIG. 6A)?
A: reduction in EdU incorporation at 12 hours which was starting to return to normal at 24 hours

Q: And the “time by which proliferation of HSPCs resumes” value (HSPCs; single 150 mg/kg oral dose, FIG. 7)?
A: ≤ 24 h

Q: What about the “proliferation (cells in S-phase by EdU)” value [5] of the same compound?
A: inhibits

Q: And the Rb phosphorylation [6]?
A: blocks Rb phosphorylation

Q: What about the S-phase peak [7] of the same compound?
A: causes a loss of the S-phase peak

Q: What about the “growth (cells in S-phase by EdU)” value [8] of the same compound?
A: does not affect the growth

Q: And the “F (oral bioavailability)” value [9]?
A: 80%
